Experimental data taken from paper PMC11434980, “Deciphering Chemical Rules for Drug Penetration into Strongyloides” (Pharmaceutics, 2024).

Tested on: S. venezuelensis L3s
Test: microbe, parasite or virus in culture
Conditions: L3 motility, 72 h of treatment
Method: (§1) Baerman-obtained S. venezuelensis L3s were rinsed twice with distilled water and counted, and 100 to 150 larvae were placed per well in 96-well flat-bottom culture plates. Larvae were incubated at 28 °C for 30 min to allow adaptation and treated with compounds in the range of 0.5–40 µM for 72 h at 28 °C in a humid atmosphere. Mortality was assessed as the lack of any movement detected during 1 min of observation under an inverted microscope (40×), at 24, 48, and 72 h after treatment. The ability to stain the larvae was pointed out when observed; at 72 h, larvae were collected and washed two times with distilled water and placed in a new well to remove the background color and photographed. Pictures were also taken at 24 and 48 h without cleaning the larvae so as not to interfere with the 72 h readout of the experiment. […] All experiments were conducted in triplicate and at least three different times. The antiparasitic activity of the compounds was expressed as the concentration that inhibited the motility of half of the larvae (immobilization concentration 50, IC50).
A total of 15 dyes were tested against S. venezuelensis L3s at a 20 µM concentration. The activity was determined by the number of larvae lacking motility relative to the total number in the well after 1 min of light excitation at 24, 48, and 72 h after treatment.

SMILES	significant activity against the L3s
O=C1/C(=C2\Nc3ccc(S(=O)(=O)[O-])cc3C2=O)Nc2ccc(S(=O)(=O)[O-])cc21.[Na+].[Na+] [Indigo Carmine]	did not show significant activity
Cc1c(C(=O)O)c(O)cc2c1C(=O)c1c(O)c(C3O[C@H](CO)[C@@H](O)[C@H](O)[C@H]3O)c(O)c(O)c1C2=O (stereo in doubt) [Carmine]	did not show significant activity
Cc1cc(-c2ccc(/N=N/c3c(S(=O)(=O)O)cc4cc(S(=O)(=O)O)cc(N)c4c3O)c(C)c2)ccc1/N=N/c1c(S(=O)(=O)O)cc2cc(S(=O)(=O)O)cc(N)c2c1O [Trypan Blue]	did not show significant activity
O=[N+]([O-])c1ccc2c(N=Nc3ccc4ccccc4c3O)c(O)cc(S(=O)(=O)[O-])c2c1.[Na+] [Eriochrome Black T]	did not show significant activity
CC(=O)Oc1ccc2c(c1)Oc1cc(OC(C)=O)ccc1C21OC(=O)c2ccccc21 [Fluorescein Diacetate]	did not show significant activity
Oc1cc2c(cc1O)[C@@H]1c3ccc(O)c(O)c3OC[C@]1(O)C2 [Hematoxylin]	did not show significant activity

Same assay, conditions: L3s, 20 µM, 72 h

SMILES	Screening 20 µM 72 h
COC(=O)Nc1nc2ccc(C(=O)c3ccccc3)cc2[nH]1 [Mebendazole]	No
CCCSc1ccc2nc(NC(=O)OC)[nH]c2c1 [Albendazole]	No
O=C1/C(=C2\Nc3ccc(S(=O)(=O)[O-])cc3C2=O)Nc2ccc(S(=O)(=O)[O-])cc21.[Na+].[Na+] [Indigo Carmine]	No
Cc1c(C(=O)O)c(O)cc2c1C(=O)c1c(O)c(C3O[C@H](CO)[C@@H](O)[C@H](O)[C@H]3O)c(O)c(O)c1C2=O (stereo in doubt) [Carmine]	No
O=[N+]([O-])c1ccc2c(N=Nc3ccc4ccccc4c3O)c(O)cc(S(=O)(=O)[O-])c2c1.[Na+] [Eriochrome Black T]	No
CC(=O)Oc1ccc2c(c1)Oc1cc(OC(C)=O)ccc1C21OC(=O)c2ccccc21 [Fluorescein Diacetate]	No
CCCCCCCCCCCCCCCCCCOCC(COP(=O)([O-])OCC[N+](C)(C)C)OC (stereo not shown) [Edelfosine]	No
Oc1cc2c(cc1O)[C@@H]1c3ccc(O)c(O)c3OC[C@]1(O)C2 [Hematoxylin]	No

Same assay, conditions: L3s, 40 µM

SMILES	activity against L3 at 40 µM
COC(=O)Nc1nc2ccc(C(=O)c3ccccc3)cc2[nH]1 [Mebendazole]	no activity
CCCSc1ccc2nc(NC(=O)OC)[nH]c2c1 [Albendazole]	no activity

Same assay, conditions: read-out: IC50 72 h (immobilization concentration 50 of cultured L3s); L3s, 72 h

SMILES	IC50 [nM]
O=C1/C(=C2\Nc3ccc(S(=O)(=O)[O-])cc3C2=O)Nc2ccc(S(=O)(=O)[O-])cc21.[Na+].[Na+] [Indigo Carmine]	> 40000
O=[N+]([O-])c1ccc2c(N=Nc3ccc4ccccc4c3O)c(O)cc(S(=O)(=O)[O-])c2c1.[Na+] [Eriochrome Black T]	> 40000

Tested on: HeLa (human cervical cancer) cell line
Test: Cytotoxicity, MTT method
Format: cell-based
Conditions: HeLa IC50 / L3 IC50
Method: (§2) A cytotoxicity test was performed using the HeLa (human cervical cancer) cell line according to the MTT method. Cells were from the ATCC (Manassas, VA, USA). They were cultured at 37 °C in sub-confluent conditions under a 95% humidified atmosphere and 5% CO2 in Dulbecco’s Modified Eagle Medium (DMEM) (Gibco, Whaltman, MA, USA) supplemented with 10% heat-inactivated FBS, 2 mM L-glutamine, 100 U/mL penicillin, and 100 µg/mL streptomycin. […] The antiproliferative activity was measured in triplicate after 72 h using the MTT (3-(4,5-dimethylthiazol-2-yl)-2,5-diphenyltetrazolium bromide) Cell Proliferation Kit (Roche, Boston, MA, USA), following the manufacturer’s specifications. […] The selectivity index (SI = HeLa IC50/L3 IC50) for each compound was calculated to compare the antiparasitic activity with its respective human cell cytotoxicity.

SMILES	selectivity index (SI = HeLa IC50/L3 IC50)
COC(=O)Nc1nc2ccc(C(=O)c3ccccc3)cc2[nH]1 [Mebendazole]	< 0.005
CCCSc1ccc2nc(NC(=O)OC)[nH]c2c1 [Albendazole]	< 0.0075

Tested on: not listed separately
Test: Cytotoxicity, MTT method
Format: cell-based, human
Conditions: human; HeLa cells, 72 h, MTT; read-out: HeLa IC50 (antiproliferative activity / cytotoxicity)
Method: as §2

SMILES	IC50 at 72 h [nM]
COC(=O)Nc1nc2ccc(C(=O)c3ccccc3)cc2[nH]1 [Mebendazole]	200
CCCSc1ccc2nc(NC(=O)OC)[nH]c2c1 [Albendazole]	300
Cc1cc(-c2ccc(/N=N/c3c(S(=O)(=O)O)cc4cc(S(=O)(=O)O)cc(N)c4c3O)c(C)c2)ccc1/N=N/c1c(S(=O)(=O)O)cc2cc(S(=O)(=O)O)cc(N)c2c1O [Trypan Blue]	> 10000

Tested on: parasitic females of S. venezuelensis
Test: In vitro activity against adult females (movement categories)
Format: cell-based, Strongyloides venezuelensis
Conditions: 10 µM, 50–70 worms per well
Method: Seven to nine days after infection, the mice or rats were euthanized and the small intestine was removed, sliced longitudinally, minced, and placed in a sedimentation cup wrapped in 8 layers of gauze in phosphate-buffered solution (PBS) for two hours at 37 °C. Parasitic females were collected from the sediment and washed twice with saline solution (NaCl 0.15 mol/L) and twice with Roswell Park Memorial Institute 1640 (RPMI 1640) (Gibco, Whaltman, MA, USA) supplemented with 10% heat-inactivated FBS, 100 µg/mL streptomycin, and 100 U/mL penicillin (Gibco, Whaltman, MA, USA) to avoid contamination during the in vitro assays. After collection, females were placed in 96-well plates with supplemented RPMI medium and kept at 37 °C. We tested three different female population densities to explore the effects on the measured activity: 1–3 females, 10–15 females, and 50–70 females per well. At 24 h after plating, the compounds were applied at 10 µM and the anti-parasitic activity was evaluated at 1, 24, 48, and 72 h after treatment based on movement for 30 s observation periods under the microscope (40×). […] All experiments were conducted in duplicate and at least three different times. […]

SMILES	effect on adult females
COC(=O)Nc1nc2ccc(C(=O)c3ccccc3)cc2[nH]1 [Mebendazole]	slightly reduced movement
CCCSc1ccc2nc(NC(=O)OC)[nH]c2c1 [Albendazole]	slightly reduced movement

Same assay, conditions: 10 µM, 1 h, 50–70 worms per well

SMILES	Activity against parasitic females 1 h
COC(=O)Nc1nc2ccc(C(=O)c3ccccc3)cc2[nH]1 [Mebendazole]	Healthy
CCCSc1ccc2nc(NC(=O)OC)[nH]c2c1 [Albendazole]	Healthy

Same assay, conditions: 10 µM, 24 h, 50–70 worms per well

SMILES	Activity against parasitic females 24 h
COC(=O)Nc1nc2ccc(C(=O)c3ccccc3)cc2[nH]1 [Mebendazole]	Healthy
CCCSc1ccc2nc(NC(=O)OC)[nH]c2c1 [Albendazole]	Healthy

Same assay, conditions: 10 µM, 48 h, 50–70 worms per well

SMILES	Activity against parasitic females 48 h
COC(=O)Nc1nc2ccc(C(=O)c3ccccc3)cc2[nH]1 [Mebendazole]	Slightly affected
CCCSc1ccc2nc(NC(=O)OC)[nH]c2c1 [Albendazole]	Slightly affected

Same assay, conditions: 10 µM, 72 h, 50–70 worms per well

SMILES	Activity against parasitic females 72 h
COC(=O)Nc1nc2ccc(C(=O)c3ccccc3)cc2[nH]1 [Mebendazole]	Slightly affected
CCCSc1ccc2nc(NC(=O)OC)[nH]c2c1 [Albendazole]	Slightly affected

Tested on: S. venezuelensis L3s
Test: Staining (uptake) of L3 larvae by the dyes
Format: cell-based, Strongyloides venezuelensis
Conditions: not given
Method: as §1

SMILES	Staining 72 h (L3 staining ability)
O=C1/C(=C2\Nc3ccc(S(=O)(=O)[O-])cc3C2=O)Nc2ccc(S(=O)(=O)[O-])cc21.[Na+].[Na+] [Indigo Carmine]	No
Cc1c(C(=O)O)c(O)cc2c1C(=O)c1c(O)c(C3O[C@H](CO)[C@@H](O)[C@H](O)[C@H]3O)c(O)c(O)c1C2=O (stereo in doubt) [Carmine]	No
Cc1cc(-c2ccc(/N=N/c3c(S(=O)(=O)O)cc4cc(S(=O)(=O)O)cc(N)c4c3O)c(C)c2)ccc1/N=N/c1c(S(=O)(=O)O)cc2cc(S(=O)(=O)O)cc(N)c2c1O [Trypan Blue]	Yes
O=[N+]([O-])c1ccc2c(N=Nc3ccc4ccccc4c3O)c(O)cc(S(=O)(=O)[O-])c2c1.[Na+] [Eriochrome Black T]	No
CC(=O)Oc1ccc2c(c1)Oc1cc(OC(C)=O)ccc1C21OC(=O)c2ccccc21 [Fluorescein Diacetate]	No
Oc1cc2c(cc1O)[C@@H]1c3ccc(O)c(O)c3OC[C@]1(O)C2 [Hematoxylin]	No

Same assay, conditions: 72 h

SMILES	lowest staining concentration (Conc) [µM]
Cc1cc(-c2ccc(/N=N/c3c(S(=O)(=O)O)cc4cc(S(=O)(=O)O)cc(N)c4c3O)c(C)c2)ccc1/N=N/c1c(S(=O)(=O)O)cc2cc(S(=O)(=O)O)cc(N)c2c1O [Trypan Blue]	20
